Experimental data from ChEMBL document CHEMBL4020769, “Gemcitabine anti-proliferative activity significantly enhanced upon conjugation with cell-penetrating peptides” (Bioorg Med Chem Lett, 2017).
Peptide text beside a SMILES is read from it. * marks the point of attachment. X1 = O=C(CCS*)Nc1ccn([C@@H]2O[C@H](CO)[C@@H](O)C2(F)F)c(=O)n1

Assays:
[1] = test system: HT-29; assay: Antiproliferative activity against human HT-29 cells after 48 hrs by sulforhodamine B assay; assay type: functional, cell-based; details: for IC50: HT-29, 48 h
[2] = test system: Caco-2; assay: Antiproliferative activity against human Caco2 cells after 48 hrs by sulforhodamine B assay; assay type: functional, cell-based; details: Caco-2, 48 h
[3] = test system: MKN-28; assay: Antiproliferative activity against human MKN28 cells after 48 hrs by sulforhodamine B assay; assay type: functional, cell-based; details: MKN-28, 48 h
[4] = Half life in pH 7.4 phosphate buffered saline by HPLC method; assay type: physicochemical
[5] = Prodrug conversion in pH 7.4 phosphate buffered saline assessed as gemcitabine release by HPLC method
[6] = test system: HT-29; assay: Growth inhibition of human HT-29 cells after 48 hrs by sulforhodamine B assay relative to control; assay type: functional

Row | Compound | IC50 [1] | IC50 [2] | IC50 [3] | half-life [4] | Activity [1] | Drug metabolism [5] | growth inhibition (GI) [6]
1 | CC[C@H](C)[C@H](NC(=O)[C@H](CCCCN)NC(=O)[C@@H](NC(=O)[C@H](CCC(N)=O)NC(=O)[C@H](CCCNC(=N)N)NC(=O)[C@@H](N)CS)[C@@H](C)CC)C(=O)N[C@@H](Cc1c[nH]c2ccccc12)C(=O)N[C@@H](Cc1ccccc1)C(=O)N[C@@H](CCC(N)=O)C(=O)N[C@@H](CC(N)=O)C(=O)N[C@@H](CCCNC(=N)N)C(=O)N[C@@H](CCCNC(=N)N)C(=O)N[C@@H](CCSC)C(=O)N[C@@H](CCCCN)C(=O)N[C@@H](Cc1c[nH]c2ccccc12)C(=O)N[C@@H](CCCCN)C(=O)N[C@@H](CCCCN)C(=O)O | > 100 µM | > 100 µM | > 100 µM | – | – | – | –
2 | Nc1ccn([C@@H]2O[C@H](CO)[C@@H](O)C2(F)F)c(=O)n1 [GEMCITABINE] | > 100 µM | > 100 µM | > 100 µM | – | – | – | 30%
3 | H-CLLIILRRRIRKQAHAHSK-OH | > 100 µM | > 100 µM | > 100 µM | – | – | – | –

Stronger by IC50 [1], values ahead:

Row | IC50 [1] | IC50 [2] | IC50 [3] | half-life [4] | Compound | Activity [1] | Drug metabolism [5] | growth inhibition (GI) [6]
4 | 47.3 µM | 67.1 µM | 47 µM | 230 h | CC[C@H](C)[C@H](NC(=O)[C@H](CCCCN)NC(=O)[C@@H](NC(=O)[C@H](CCC(N)=O)NC(=O)[C@H](CCCNC(=N)N)NC(=O)[C@@H](N)CSSCCC(=O)Nc1ccn([C@@H]2O[C@H](CO)[C@@H](O)C2(F)F)c(=O)n1)[C@@H](C)CC)C(=O)N[C@@H](Cc1c[nH]c2ccccc12)C(=O)N[C@@H](Cc1ccccc1)C(=O)N[C@@H](CCC(N)=O)C(=O)N[C@@H](CC(N)=O)C(=O)N[C@@H](CCCNC(=N)N)C(=O)N[C@@H](CCCNC(=N)N)C(=O)N[C@@H](CCSC)C(=O)N[C@@H](CCCCN)C(=O)N[C@@H](Cc1c[nH]c2ccccc12)C(=O)N[C@@H](CCCCN)C(=O)N[C@@H](CCCCN)C(=O)O | Dose-dependent effect | Metabolite detected | –
5 | 45.2 µM | > 100 µM | 20.7 µM | 42 h | CC[C@H](C)[C@H](NC(=O)[C@H](CCCNC(=N)N)NC(=O)[C@H](CCCNC(=N)N)NC(=O)[C@H](CCCNC(=N)N)NC(=O)[C@H](CC(C)C)NC(=O)[C@@H](NC(=O)[C@@H](NC(=O)[C@H](CC(C)C)NC(=O)[C@H](CC(C)C)NC(=O)[C@@H](N)CSSCCC(=O)Nc1ccn([C@@H]2O[C@H](CO)[C@@H](O)C2(F)F)c(=O)n1)[C@@H](C)CC)[C@@H](C)CC)C(=O)N[C@@H](CCCNC(=N)N)C(=O)N[C@@H](CCCCN)C(=O)N[C@@H](CCC(N)=O)C(=O)N[C@@H](C)C(=O)N[C@@H](Cc1cnc[nH]1)C(=O)N[C@@H](C)C(=O)N[C@@H](Cc1cnc[nH]1)C(=O)N[C@@H](CO)C(=O)N[C@@H](CCCCN)C(=O)O (H-C(X1)LLIILRRRIRKQAHAHSK-OH) | Dose-dependent effect | Metabolite detected | –
